Measured values reported in PubChem BioAssay AID1963842 (Molecular Pharmacology Branch, DTP, NCI, 2024).

System: 677734-321-R-J1-PDC complex spheroid viability
Test: Anticancer human tumor 677734-321-R-J1-PDC patient-derived soft tissue sarcoma cell line growth inhibition [POLQ]
Conditions: for IC50: curve of first compound; for viability, T/C: stronger effect = lower value; active = viability on the fitted dose curve at most 10% of control; inactive = the rest
Procedure, shortened: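 Three-cell-type spheroids modelling solid tumor plus stroma served as the readout system; POL inhibitors were tested individually and in combination, concentration ranges set by clinical Cmax where known.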

[1] = second compound 0.0316 µM, first compound 0.0316 µM
[2] = second compound 0.0316 µM, first compound 0.1 µM
[3] = second compound 0.0316 µM, first compound 0.316 µM
[4] = second compound 0.0316 µM, first compound 1 µM
[5] = second compound 0.0316 µM, first compound 3.16 µM
[6] = second compound 0.0316 µM, first compound 10 µM
[7] = second compound 0.1 µM, first compound 0.0316 µM
[8] = second compound 0.1 µM, first compound 0.1 µM
[9] = second compound 0.1 µM, first compound 0.316 µM
[10] = second compound 0.1 µM, first compound 1 µM
[11] = second compound 0.1 µM, first compound 3.16 µM
[12] = second compound 0.1 µM, first compound 10 µM
[13] = second compound 0.316 µM, first compound 0.0316 µM
[14] = second compound 0.316 µM, first compound 0.1 µM
[15] = second compound 0.316 µM, first compound 0.316 µM
[16] = second compound 0.316 µM, first compound 1 µM
[17] = second compound 0.316 µM, first compound 3.16 µM
[18] = second compound 0.316 µM, first compound 10 µM
[19] = second compound 1 µM, first compound 0.0316 µM
[20] = second compound 1 µM, first compound 0.1 µM
[21] = second compound 1 µM, first compound 0.316 µM
[22] = second compound 1 µM, first compound 1 µM
[23] = second compound 1 µM, first compound 3.16 µM
[24] = second compound 1 µM, first compound 10 µM
[25] = second compound 3.16 µM, first compound 0.0316 µM
[26] = second compound 3.16 µM, first compound 0.1 µM
[27] = second compound 3.16 µM, first compound 0.316 µM
[28] = second compound 3.16 µM, first compound 1 µM
[29] = second compound 3.16 µM, first compound 3.16 µM
[30] = second compound 3.16 µM, first compound 10 µM
[31] = second compound 10 µM, first compound 0.0316 µM
[32] = second compound 10 µM, first compound 0.1 µM
[33] = second compound 10 µM, first compound 0.316 µM
[34] = second compound 10 µM, first compound 1 µM
[35] = second compound 10 µM, first compound 3.16 µM
[36] = second compound 10 µM, first compound 10 µM
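Also: spheroids exposed to compounds for one week.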
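For viability, T/C in this document: 100% = vehicle DMSO treated spheroids.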

C#Cc1c(F)ccc2cc(O)cc(-c3ncc4c(N5CC6CCC(C5)N6)nc(OCC56CCCN5CC(F)C6)nc4c3F)c12 (stereo not drawn) + Cc1cccc(N(C)C(=O)C2C(O)CCN2c2nc(C)cc(C(F)(F)F)c2C#N)c1
> 10000 nM: IC50 (second compound 0.0316 µM) | IC50 (second compound 0.1 µM) | IC50 (second compound 0.316 µM) | IC50 (second compound 1 µM) | IC50 (second compound 3.16 µM) | IC50 (second compound 10 µM)
inactive: viability, T/C [1] 110% | viability, T/C [2] 101% | viability, T/C [3] 108% | viability, T/C [4] 103% | viability, T/C [5] 101% | viability, T/C [6] 102% | viability, T/C [7] 111% | viability, T/C [8] 106% | viability, T/C [9] 105% | viability, T/C [10] 100% | viability, T/C [11] 106% | viability, T/C [12] 107% | viability, T/C [13] 118% | viability, T/C [14] 97.5% | viability, T/C [15] 100% | viability, T/C [16] 100% | viability, T/C [17] 110% | viability, T/C [18] 104% | viability, T/C [19] 105% | viability, T/C [20] 97% | viability, T/C [21] 109% | viability, T/C [22] 100% | viability, T/C [23] 107% | viability, T/C [24] 102% | viability, T/C [25] 98.1% | viability, T/C [26] 102% | viability, T/C [27] 103% | viability, T/C [28] 109% | viability, T/C [29] 101% | viability, T/C [30] 107% | viability, T/C [31] 99.9% | viability, T/C [32] 104% | viability, T/C [33] 107% | viability, T/C [34] 99.2% | viability, T/C [35] 103% | viability, T/C [36] 98.8%

COc1cc(C2c3cc4c(cc3C(OC3OC5COC(C)OC5C(O)C3O)C3COC(=O)C23)OCO4)cc(OC)c1O (stereo not drawn) + Nc1ccc(C#CCN(C(=O)Cc2ncc(C(F)(F)F)cc2C(F)(F)F)c2ccc(F)cc2)nn1
482 nM: IC50 (second compound 0.1 µM)
active: viability, T/C [12] 8.28% | viability, T/C [24] 8.43% | viability, T/C [36] 8.79%
219 nM: IC50 (second compound 10 µM)
inactive: viability, T/C [1] 98.2% | viability, T/C [2] 93.8% | viability, T/C [3] 47.1% | viability, T/C [4] 37.2% | viability, T/C [5] 16.8% | viability, T/C [6] 10.4% | viability, T/C [7] 97.4% | viability, T/C [8] 92.5% | viability, T/C [9] 45.8% | viability, T/C [10] 46% | viability, T/C [11] 11.4% | viability, T/C [13] 122% | viability, T/C [14] 102% | viability, T/C [15] 45% | viability, T/C [16] 29.6% | viability, T/C [17] 12.6% | viability, T/C [18] 10.6% | viability, T/C [19] 111% | viability, T/C [20] 75.3% | viability, T/C [21] 54% | viability, T/C [22] 36.2% | viability, T/C [23] 15.4% | viability, T/C [25] 101% | viability, T/C [26] 89.2% | viability, T/C [27] 41.8% | viability, T/C [28] 36.6% | viability, T/C [29] 12.5% | viability, T/C [30] 10% | viability, T/C [31] 108% | viability, T/C [32] 72.6% | viability, T/C [33] 31% | viability, T/C [34] 35.5% | viability, T/C [35] 12.5%
417 nM: IC50 (second compound 0.0316 µM)
341 nM: IC50 (second compound 3.16 µM)
375 nM: IC50 (second compound 1 µM)
315 nM: IC50 (second compound 0.316 µM)

COc1cccc(OCCCN)c1-c1cc(Nc2cnc(C#N)cn2)n[nH]1 + Nc1ccc(C#CCN(C(=O)Cc2ncc(C(F)(F)F)cc2C(F)(F)F)c2ccc(F)cc2)nn1
inactive: viability, T/C (second compound 0.0316 µM, first compound 0.00316 µM) 101% | viability, T/C (second compound 0.0316 µM, first compound 0.01 µM) 13.8% | viability, T/C (second compound 0.1 µM, first compound 0.00316 µM) 67.2% | viability, T/C (second compound 0.1 µM, first compound 0.01 µM) 14.3% | viability, T/C (second compound 0.316 µM, first compound 0.00316 µM) 77% | viability, T/C (second compound 0.316 µM, first compound 0.01 µM) 17.7% | viability, T/C (second compound 1 µM, first compound 0.00316 µM) 83.6% | viability, T/C (second compound 1 µM, first compound 0.01 µM) 25.5% | viability, T/C (second compound 3.16 µM, first compound 0.00316 µM) 72.7% | viability, T/C (second compound 3.16 µM, first compound 0.01 µM) 13.8% | viability, T/C (second compound 10 µM, first compound 0.00316 µM) 56.6%
3.71 nM: IC50 (second compound 10 µM)
6.21 nM: IC50 (second compound 0.0316 µM)
4.93 nM: IC50 (second compound 3.16 µM)
active: viability, T/C [1] 5.82% | viability, T/C [2] 6.83% | viability, T/C [3] 7.28% | viability, T/C [4] 5.14% | viability, T/C [7] 6.58% | viability, T/C [8] 6.56% | viability, T/C [9] 8.96% | viability, T/C [10] 3.87% | viability, T/C [13] 5.86% | viability, T/C [14] 9.23% | viability, T/C [15] 6.18% | viability, T/C [16] 5.17% | viability, T/C [19] 6% | viability, T/C [20] 6.97% | viability, T/C [21] 6.56% | viability, T/C [22] 5.02% | viability, T/C [25] 9% | viability, T/C [26] 6.22% | viability, T/C [27] 7.97% | viability, T/C [28] 5.64% | viability, T/C (second compound 10 µM, first compound 0.01 µM) 9.16% | viability, T/C [31] 6.91% | viability, T/C [32] 7.72% | viability, T/C [33] 6.82% | viability, T/C [34] 5.03%
5.33 nM: IC50 (second compound 0.316 µM)
6.15 nM: IC50 (second compound 1 µM)
4.6 nM: IC50 (second compound 0.1 µM)

COc1cccc2c1C(=O)c1c(O)c3c(c(O)c1C2=O)CC(O)(C(=O)CO)CC3OC1CC(N)C(O)C(C)O1 (stereo not drawn) + Nc1ccc(C#CCN(C(=O)Cc2ncc(C(F)(F)F)cc2C(F)(F)F)c2ccc(F)cc2)nn1
inactive: viability, T/C [1] 55.1% | viability, T/C [2] 29.5% | viability, T/C [7] 61% | viability, T/C [8] 28.5% | viability, T/C [13] 58.5% | viability, T/C [14] 29.6% | viability, T/C [19] 60% | viability, T/C [20] 47.3% | viability, T/C [25] 58.1% | viability, T/C [26] 21.1% | viability, T/C [31] 57.3% | viability, T/C [32] 24.8%
46.7 nM: IC50 (second compound 0.1 µM)
44.4 nM: IC50 (second compound 0.316 µM)
39.8 nM: IC50 (second compound 0.0316 µM)
78.5 nM: IC50 (second compound 1 µM)
40.6 nM: IC50 (second compound 3.16 µM)
active: viability, T/C [3] 4.74% | viability, T/C [4] 1.41% | viability, T/C [5] 1.65% | viability, T/C [6] 1.2% | viability, T/C [9] 4.99% | viability, T/C [10] 1.48% | viability, T/C [11] 1.35% | viability, T/C [12] 1.19% | viability, T/C [15] 6.1% | viability, T/C [16] 0.73% | viability, T/C [17] 2.36% | viability, T/C [18] 0.63% | viability, T/C [21] 4.86% | viability, T/C [22] 1.7% | viability, T/C [23] 1.58% | viability, T/C [24] 0.84% | viability, T/C [27] 4.68% | viability, T/C [28] 0.97% | viability, T/C [29] 1.23% | viability, T/C [30] 0.74% | viability, T/C [33] 4.54% | viability, T/C [34] 1.86% | viability, T/C [35] 2.02% | viability, T/C [36] 0.8%
41 nM: IC50 (second compound 10 µM)
